Counter-ions that a name gives are not always drawn.

Data set [1] addresses T1, epithelial sodium channel (ENaC) (Canis lupus familiaris, UniProt A0A8I3MKE6+A0A8I3Q679+Q95165).
T1 construct: endogenous in cells; host or cells: primary canine bronchial epithelial cells cultured at air-liquid interface
T1 sequence (A0A8I3Q679 1-649): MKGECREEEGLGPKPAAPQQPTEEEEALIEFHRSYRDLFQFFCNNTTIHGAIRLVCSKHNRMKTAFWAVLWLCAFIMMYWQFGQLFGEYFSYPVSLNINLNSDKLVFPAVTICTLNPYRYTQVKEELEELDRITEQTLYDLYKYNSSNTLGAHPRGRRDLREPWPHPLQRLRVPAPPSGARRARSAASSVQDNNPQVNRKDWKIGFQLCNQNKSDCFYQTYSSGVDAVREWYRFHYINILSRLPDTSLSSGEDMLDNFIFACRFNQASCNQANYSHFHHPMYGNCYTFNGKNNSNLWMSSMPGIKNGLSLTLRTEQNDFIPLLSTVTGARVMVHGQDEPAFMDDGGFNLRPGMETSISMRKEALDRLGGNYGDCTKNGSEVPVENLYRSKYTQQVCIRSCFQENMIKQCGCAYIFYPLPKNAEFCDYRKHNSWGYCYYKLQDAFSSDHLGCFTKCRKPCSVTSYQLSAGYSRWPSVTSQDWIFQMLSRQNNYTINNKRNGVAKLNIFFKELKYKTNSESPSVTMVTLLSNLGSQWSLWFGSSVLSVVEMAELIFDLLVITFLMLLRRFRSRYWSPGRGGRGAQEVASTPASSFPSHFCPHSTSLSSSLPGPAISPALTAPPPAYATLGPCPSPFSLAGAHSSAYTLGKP
T1 sequence (Q95165 1-641): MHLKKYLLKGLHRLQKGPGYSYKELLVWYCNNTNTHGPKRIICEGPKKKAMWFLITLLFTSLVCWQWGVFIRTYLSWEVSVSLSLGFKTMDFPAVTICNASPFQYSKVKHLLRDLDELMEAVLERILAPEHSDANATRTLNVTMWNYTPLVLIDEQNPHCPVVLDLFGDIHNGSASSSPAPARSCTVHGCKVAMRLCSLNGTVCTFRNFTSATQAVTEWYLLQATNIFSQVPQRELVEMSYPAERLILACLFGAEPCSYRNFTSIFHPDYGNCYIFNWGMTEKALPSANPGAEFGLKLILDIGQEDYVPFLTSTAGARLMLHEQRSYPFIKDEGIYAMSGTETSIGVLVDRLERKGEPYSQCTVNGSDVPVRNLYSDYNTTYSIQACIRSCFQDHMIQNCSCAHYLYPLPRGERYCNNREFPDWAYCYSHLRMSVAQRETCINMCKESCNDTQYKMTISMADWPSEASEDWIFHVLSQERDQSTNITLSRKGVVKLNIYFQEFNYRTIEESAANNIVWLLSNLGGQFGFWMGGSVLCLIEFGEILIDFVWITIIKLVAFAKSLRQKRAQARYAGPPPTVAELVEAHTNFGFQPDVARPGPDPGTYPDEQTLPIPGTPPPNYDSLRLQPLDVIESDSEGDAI
T1 sequence (A0A8I3MKE6 1-646): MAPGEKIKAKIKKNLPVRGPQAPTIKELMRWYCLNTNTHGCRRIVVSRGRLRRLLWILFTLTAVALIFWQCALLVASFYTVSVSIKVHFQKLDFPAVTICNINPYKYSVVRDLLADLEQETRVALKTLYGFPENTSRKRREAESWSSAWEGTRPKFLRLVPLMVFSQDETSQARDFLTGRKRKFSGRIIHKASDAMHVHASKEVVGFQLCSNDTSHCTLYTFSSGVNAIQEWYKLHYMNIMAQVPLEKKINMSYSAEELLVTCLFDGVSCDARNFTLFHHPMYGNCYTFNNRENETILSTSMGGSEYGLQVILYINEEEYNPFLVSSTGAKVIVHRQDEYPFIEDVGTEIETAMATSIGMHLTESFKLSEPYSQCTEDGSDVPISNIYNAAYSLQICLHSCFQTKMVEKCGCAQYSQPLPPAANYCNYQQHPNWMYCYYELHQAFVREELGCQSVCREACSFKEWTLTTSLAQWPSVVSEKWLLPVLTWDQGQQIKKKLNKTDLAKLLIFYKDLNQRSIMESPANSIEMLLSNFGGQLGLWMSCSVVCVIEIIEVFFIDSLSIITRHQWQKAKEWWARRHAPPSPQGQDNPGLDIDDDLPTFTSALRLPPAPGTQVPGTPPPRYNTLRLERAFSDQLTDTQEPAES
Briefly: ENaC blocking activity, short circuit current in airway epithelial monolayers in Ussing chambers. It counts as cell-based. The following applies: canine bronchial epithelia; for ENaC blocking potency relative to Amiloride: fold potency versus amiloride; for IC50: lumenal addition, propranolol 10 μM applied first. On the procedure:
To assess epithelial sodium channel blocker potency the compounds of the present invention involves the determination of lumenal drug inhibition of airway epithelial sodium currents measured under short circuit current (ISC) using airway epithelial monolayers mounted in Ussing chambers. Cells obtained from freshly excised human, or dog airways are seeded onto porous 0.4 micrometer Transwell® Permeable Supports (Corning Inc. Acton, Mass.), cultured at air-liquid interface (ALI) conditions in hormonally defined media, and assayed for sodium transport activity (ISC) while bathed in Krebs Bicarbonate Ringer (KBR) in Ussing chambers. All test drug additions are to the lumenal bath with approximately half-log dose additions (from 1×10^−11 M to 6×10^−5 M), and the cumulative change in ISC (decreases) recorded. All drugs are prepared in dimethyl sulfoxide as stock solutions at a concentration of approximately 1×10^−2 and stored at −20° C. Six preparations are typically run in parallel; one preparation per run incorporates 552-02 as a positive control. Before the start of the concentration-effect relationship propranolol, a non-selective […], was applied to the lumenal bath (10 μM) to inhibit the beta agonist component of the designer multiple ligand (DML). All data from the voltage clamps are collected via a computer face and analyzed off-line.
Concentration-effect relationships for all compounds are considered and analyzed Using GraphPad Prism version 3.00 for Windows, GraphPad Software, San Diego Calif. USA. IC50 values, […], are calculated and compared to the 552-02 potency as a positive control.

On to `C[C@H](CCCc1ccc(CCCCNC(=N)NC(=O)c2nc(Cl)c(N)nc2N)cc1)NC[C@H](O)c1ccc(O)c(NC=O)c1` (as salt: lactate) (hydrate or solvate) [Compound 30, N-(5-{2-[4-(4-{4-[N′-(3,5-diamino-6-chloropyrazine-2-carbonyl)-guanidino]butyl}phenyl)-1-methylbutylamino]-1-(R)-hydroxyethyl}-2-hydroxyphenyl)formamide], for which the melting point (as a rule, the temperature of the solid-liquid transition) is 116 to 119 °C. In the case of `N=C(NCCCCc1ccc(CCCCN(C[C@H](O)c2ccc(O)c(NC=O)c2)C[C@H](O)c2ccc(O)c(NC=O)c2)cc1)NC(=O)c1nc(Cl)c(N)nc1N` (as salt: salt) [Compound 14, N-{4-[4-(4-{bis-[2-(R)-hydroxy-2-(4-hydroxy-3-formylaminophenyl)-ethyl]amino}butyl)phenyl]butyl}-N′-(3,5-diamino-6-chloropyrazine-2-carbonyl)-guanidine diacetic acid salt], the melting point is 128 to 130 °C.

Take `CC(=O)Nc1cc([C@@H](O)CNC(C)CCCc2ccc(CCCCNC(=N)NC(=O)c3nc(Cl)c(N)nc3N)cc2)ccc1O` (stereo in doubt) (as salt: lactate) [Compound 175, N—(N-(4-(4-((S)-4-((R)-2-(3-acetamido-4-hydroxyphenyl)-2-hydroxyethylamino)pentyl)phenyl)butyl)carbamimidoyl)-3,5-diamino-6-chloropyrazine-2-carboxamide di-L-lactate]: the melting point is 46 to 50 °C (dec.). Take `N=C(NCCCCc1ccc(CCCCN(C[C@H](O)c2ccc(O)c(NC=O)c2)C[C@H](O)c2ccc(O)c(NC=O)c2)cc1)NC(=O)c1nc(Cl)c(N)nc1N` [Compound 14, N-{4-[4-(4-{bis-[2-(R)-hydroxy-2-(4-hydroxy-3-formylaminophenyl)-ethyl]amino}butyl)phenyl]butyl}-N′-(3,5-diamino-6-chloropyrazine-2-carbonyl)-guanidine diacetic acid salt]: in data set [1], the “ENaC blocking potency relative to Amiloride” value is on record as 66 × Amiloride and half-maximal inhibition (IC50) was put at 17.7 nM. Consider `N=C(NCCCCc1ccc(OCCNC[C@H](O)c2ccc(O)c(NC=O)c2)cc1)NC(=O)c1nc(Cl)c(N)nc1N` [Compound 19, N-(5-{2-[2-(4-{4-[N-(3,5-diamino-6-chloropyrazine-2-carbonyl)guanidine]butyl}phenoxy)ethylamino]-1-(R)-hydroxylethyl}-2-hydroxyphenyl)-formamide], for which the melting point is 120 to 124 °C (dec.). Besides, in data set [1], the “ENaC blocking potency relative to Amiloride” value worked out at 120 × Amiloride and half-maximal inhibition (IC50) was put at 10 nM. As for `N=C(NCCCCc1ccc(CCCCNC[C@H](O)c2ccc(O)c(CO)c2)cc1)NC(=O)c1nc(Cl)c(N)nc1N` [Compound 63, N-(3,5-diamino-6-chloropyrazine-2-carbonyl)-N′-[4-(4-{4-[2-(R)-hydroxy-2-(4-hydroxy-3-hydroxymethylphenyl)ethylamino]butyl}phenyl)butyl]-guanidine], in data set [1], the “ENaC blocking potency relative to Amiloride” value worked out at 154 × Amiloride and the IC50 (usually the concentration that inhibits the measured activity by half) stood at 6.5 nM. In the same order, the values of `N=C(NCCCCc1ccc(CCCCN(C[C@H](O)c2ccc(O)c(CO)c2)C[C@H](O)c2ccc(O)c(CO)c2)cc1)NC(=O)c1nc(Cl)c(N)nc1N` [Compound 67, N-{4-[4-(4-{bis-[2-(R)-hydroxy-2-(4-hydroxy-3-hydroxymethylphenyl)-ethyl]amino}butyl)-phenyl]butyl}-N′-(3,5-diamino-6-chloropyrazine-2-carbonyl)-guanidine] are 29 × Amiloride and 22.2 nM. In turn, `CC(CCCc1ccc(CCCCNC(=N)NC(=O)c2nc(Cl)c(N)nc2N)cc1)NC[C@H](O)c1cccc(O)c1` (stereo partly drawn) [Compound 143, 3,5-diamino-6-chloro-N-{N-[4-(4-{4-[(R)-2-hydroxy-2-(3-hydroxyphenyl)ethylamino]pentyl}phenyl)butyl]carbamimidoyl}pyrazine-2-carboxamide] showed a melting point of 82 to 86 °C.

The values above are taken from patent US8163758B2 (Parion Sciences, Inc., priority 2006, dated 2012).
